From US9273067B2, “Pyrazolopyrimidine macrocycles as inhibitors of human immunodeficiency virus replication” (BRISTOL-MYERS SQUIBB COMPANY, priority 2014, dated 2016)

test system: NL-RLuc virus (recombinant HIV NL4-3 with Renilla Luciferase) in MT-2 cells; experiment: Inhibition of HIV replication (NL-RLuc virus in MT-2 cells, luciferase readout); type: cell-based, human immunodeficiency virus (HIV); settings: MT2, 120 h, NL-RLuc virus infecting MT-2 cells, 5 days of incubation, 10% FBS, luciferase quantitation; at least 2 experiments
Description: Inhibition of HIV Replication:
A recombinant NL-RLuc proviral clone was constructed in which a section of the nef gene from NL4-3 was replaced with the Renilla Luciferase gene. This virus is fully infectious and can undergo multiple cycles of replication in cell culture. In addition, the luciferous reporter provides a simple and easy method for quantitating the extent of virus growth and consequently, the antiviral activity of test compounds. The plasmid pNLRLuc contains the proviral NL-Rluc DNA cloned into pUC 18 at the PvuII site. The NL-RLuc virus was prepared by transfection of 293T cells with the plasmid pNLRLuc. Transfections were performed using the LipofectAMINE PLUS kit from Invitrogen (Carlsbad, Calif.) according to the manufacturer and the virus generated was titered in MT-2 cells. For susceptibility analyses, the titrated virus was used to infect MT-2 cells in the presence of compound, and after 5 days of incubation, cells were processed and quantitated for virus growth by the amount of expressed luciferase. Assay media was RPMI 1640 supplemented with 10% heat inactivated fetal bovine serum (FBS), 100 units/ml penicillin G/100 units/ml streptomycin, 10 mM HEPES buffer pH 7.55 and 2 mM L-glutamine. The results from at least 2 experiments were used to calculate the EC50 values. Luciferase was quantitated using the Dual Luciferase kit from Promega (Madison, Wis.). Susceptibility of viruses to compounds was determined by incubation in the presence of serial dilutions of the compound. The 50% effective concentration (EC50) was calculated by using the exponential form of the median effect equation where (Fa)=1/[1+(ED50/drug conc.)^m] (Johnson V A, Byington R T. Infectivity Assay. In Techniques in HIV Research. ed. Aldovini A, Walker B D. 71-76. New York: Stockton Press. 1990).

SMILES | EC50 [nM]
Cc1nc2cc3nn2c(c1[C@H](OC(C)(C)C)C(=O)O)N1CCC(C)(CC1)OCCCc1ccccc1COC3 [Example 23, (2S)-2-(tert-Butoxy)-2-{4,23-dimethyl-11,22-dioxa-1,5,7,8-tetraazapentacyclo[21.2.2.1^6,^9.0^2,^7.0^13,^18]octacosa-2,4,6(28),8,13(18),14,16-heptaen-3-yl}acetic acid] | 11
Cc1nc2cc3nn2c(c1[C@H](OC(C)(C)C)C(=O)O)N1CCC(C)(CC1)OCCCCc1ccccc1COC3 [Example 24, (2S)-2-(tert-Butoxy)-2-{4,24-dimethyl-11,23-dioxa-1,5,7,8-tetraazapentacyclo[22.2.2.1^6,^9.0^2,^7.0^13,^18]nonacosa-2,4,6(29),8,13(18),14,16-heptaen-3-yl}acetic acid] | 3
Cc1nc2cc3nn2c(c1[C@H](OC(C)(C)C)C(=O)O)N1CCC(C)(CC1)OCCCc1ccccc1CCC3 [Example 25, (2S)-2-(tert-Butoxy)-2-{4,23-dimethyl-22-oxa-1,5,7,8-tetraazapentacyclo[21.2.2.1^6,^9.0^2,^7.0^13,^18]octacosa-2,4,6(28),8,13(18),14,16-heptaen-3-yl}acetic acid] | 31
Cc1nc2cc3nn2c(c1[C@H](OC(C)(C)C)C(=O)O)N1CCC(C)(CC1)OCC=Cc1cc(C(F)(F)F)ccc1COC3 [Example 26, (2S)-2-(tert-Butoxy)-2-[4,23-dimethyl-16-(trifluoromethyl)-11,22-dioxa-1,5,7,8-tetraazapentacyclo[21.2.2.1^6,^9.0^2,^7.0^13,^18]octacosa-2,4,6(28),8,13(18),14,16,19-octaen-3-yl]acetic acid] | 32
Cc1nc2cc3nn2c(c1[C@H](OC(C)(C)C)C(=O)O)N1CCC(C)(CC1)OCCCC[C@H](C)Oc1ccc(F)cc1COC3 [Example 28, (2S)-2-(tert-Butoxy)-2-[(20S)-15-fluoro-4,20,26-trimethyl-11,19,25-trioxa-1,5,7,8-tetraazapentacyclo[24.2.2.1^6,^9.0^2,^7.0^13,^18]hentriaconta-2,4,6(31),8,13,15,17-heptaen-3-yl]acetic acid] | 5
Cc1ccc2c(c1)COCc1cc3nc(C)c([C@H](OC(C)(C)C)C(=O)O)c(n3n1)N1CCC(C)(CC1)OCCCC[C@H](C)O2 [Example 30, (2S)-2-(tert-Butoxy)-2-[(20S)-4,15,20,26-tetramethyl-11,19,25-trioxa-1,5,7,8-tetraazapentacyclo[24.2.2.1^6,^9.0^2,^7.0^13,^18]hentriaconta-2,4,6(31),8,13,15,17-heptaen-3-yl]acetic] | 64
Cc1nc2cc3nn2c(c1[C@H](OC(C)(C)C)C(=O)O)N1CCC(C)(CC1)OCCCC[C@H](C)Oc1cc(F)cc(F)c1COC3 [Example 32, (2S)-2-(tert-Butoxy)-2-[(20S)-14,16-difluoro-4,20,26-trimethyl-11,19,25-trioxa-1,5,7,8-tetraazapentacyclo[24.2.2.1^6,^9.0^2,^7.0^13,^18]hentriaconta-2,4,6(31),8,13,15,17-heptaen-3-yl]acetic acid] | 3

same assay, conditions: NL-RLuc virus infecting MT-2 cells, 5 days of incubation, 10% FBS, luciferase quantitation; at least 2 experiments; read-out: EC50

SMILES | EC50 [nM]
Cc1nc2cc3nn2c(c1[C@H](OC(C)(C)C)C(=O)O)N1CCC(C)(CC1)O/C=C\CCc1ccccc1OC3 [Example 21, (2S)-2-(tert-Butoxy)-2-[(20Z)-4,23-dimethyl-11,22-dioxa-1,5,7,8-tetraazapentacyclo[21.2.2.1^6,^9.1^2,^7.0^12,^17]octacosa-2,4,6(28),8,12(17),13,15,20-octaen-3-yl]acetic acid] | 646
Cc1nc2cc3nn2c(c1[C@H](OC(C)(C)C)C(=O)O)N1CCC(C)(CC1)OC/C=C\Cc1ccccc1OC3 [Example 22, (2S)-2-(tert-Butoxy)-2-[(19Z)-4,23-dimethyl-11,22-dioxa-1,5,7,8-tetraazapentacyclo[21.2.2.1^6,^9.1^2,^7.0^12,^17]octacosa-2,4,6(28),8,12(17),13,15,19-octaen-3-yl]acetic acid] | 141
